Read-outs that look alike come from different tables or passages of the source. Marks after values point to notes of the source that are not given here.
Legend:
cGMP in mouse brain = assay: Compound-induced cGMP in mouse brain (Example 9); format: in vivo; conditions: 30 min after dosing
Method: Objective. To determine the effect of different doses of a compound of the invention in cGMP response and compound concentration in different areas of the mouse brain (cortex, hippocampus, cerebellum and striatum) and compound concentration in blood
Protocol. Mice (n=7-8 per experimental condition) were dosed PO with vehicle (1% hydroxypropyl methyl cellulose, 0.2% Tween80, 0.5% methyl cellulose) or 0.3, 1, 3 or 10 mg/Kg of Compound I-1 prepared in vehicle. Thirty minutes after dosing, under isoflurane anesthesia, the mouse was decapitated and the brain was removed and placed into an ice-cold petri dish containing slushy dissection solution (saturated with 95% O2·5% CO2). Using an ice-cold spatula, the brain was transferred to mouse brain matrix with coronal spacing for slicing at 1 mm intervals, as shown in FIG. 5 (not to scale, just a scheme).
The sliced brain was transferred back into petri dish containing slushy dissection solution with IBMX 0.5 mM (saturated with 95% O2/5% CO2). The dorsal striatum is dissected first, followed by the hippocampus second, followed by the medial prefrontal cortex third, and lastly, the cerebellum fourth. After each region is dissected the dissected tissue was immediately placed into an eppendorf that was placed on dry ice for the previous 30 minutes. Small pieces of tissue froze very fast, within 10 seconds approximately. After all regions were placed in an eppendorf, the eppendorfs were then snap frozen by immersion into liquid nitrogen. The whole blood sample was collected from the trunk area using mitra tips. Tissue samples were stored in the −80° C. and mitra tips at room temperature. cGMP and compound levels in brain and blood were determined by LC/MS; protein quantification of brain samples was determined using BCA protein assay kit.

sGC enzyme = biological target: T1, sGC enzyme (Homo sapiens, UniProt Q02108+Q02153); assay: cGMP GloSensor cell-based assay, synergy with NO at varied DETA-NO (Example 2b); conditions: for EC50: HEK293 GloSensor cells, read-out: EC50 (Absolute EC50)
T1 construct: sGC enzyme activity values in HEK cells, determined by the GloSensor assay; host or cells: HEK293 cells stably expressing GloSensor 40F cGMP biosensor
T1 sequence (Q02153 1-619): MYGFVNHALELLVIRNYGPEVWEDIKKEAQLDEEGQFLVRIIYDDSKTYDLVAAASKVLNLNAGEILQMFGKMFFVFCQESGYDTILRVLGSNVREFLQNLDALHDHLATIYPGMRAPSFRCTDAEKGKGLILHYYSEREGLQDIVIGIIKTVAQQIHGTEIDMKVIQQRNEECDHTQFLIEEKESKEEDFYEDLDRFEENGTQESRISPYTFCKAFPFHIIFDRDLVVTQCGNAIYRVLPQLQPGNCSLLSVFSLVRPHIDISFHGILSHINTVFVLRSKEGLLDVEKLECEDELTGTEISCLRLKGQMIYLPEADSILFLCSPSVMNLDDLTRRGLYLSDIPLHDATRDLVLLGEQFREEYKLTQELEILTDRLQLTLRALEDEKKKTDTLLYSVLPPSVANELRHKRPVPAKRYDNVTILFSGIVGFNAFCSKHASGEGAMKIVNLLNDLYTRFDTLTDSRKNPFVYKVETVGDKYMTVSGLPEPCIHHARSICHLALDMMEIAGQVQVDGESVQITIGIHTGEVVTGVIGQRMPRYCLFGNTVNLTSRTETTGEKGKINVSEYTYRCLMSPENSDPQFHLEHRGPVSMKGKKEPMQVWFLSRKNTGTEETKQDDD
T1 sequence (Q02108 1-690): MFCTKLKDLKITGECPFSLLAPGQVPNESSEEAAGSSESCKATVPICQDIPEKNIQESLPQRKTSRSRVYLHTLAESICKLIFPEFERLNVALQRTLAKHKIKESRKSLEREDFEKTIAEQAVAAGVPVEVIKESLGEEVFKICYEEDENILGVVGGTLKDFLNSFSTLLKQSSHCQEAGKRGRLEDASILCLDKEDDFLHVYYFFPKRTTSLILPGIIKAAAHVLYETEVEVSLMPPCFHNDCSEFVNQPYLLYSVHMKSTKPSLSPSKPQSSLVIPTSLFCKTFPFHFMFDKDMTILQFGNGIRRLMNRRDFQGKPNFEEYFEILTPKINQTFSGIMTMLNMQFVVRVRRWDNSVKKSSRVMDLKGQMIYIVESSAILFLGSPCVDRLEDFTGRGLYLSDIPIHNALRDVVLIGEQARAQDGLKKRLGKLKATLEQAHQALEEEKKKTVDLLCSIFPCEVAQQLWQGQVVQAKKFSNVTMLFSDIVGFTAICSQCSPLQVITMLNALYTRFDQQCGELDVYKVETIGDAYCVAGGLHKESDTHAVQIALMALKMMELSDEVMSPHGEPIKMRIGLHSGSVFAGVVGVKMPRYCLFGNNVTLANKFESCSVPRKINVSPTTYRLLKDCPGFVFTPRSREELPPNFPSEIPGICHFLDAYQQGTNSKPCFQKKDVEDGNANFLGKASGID
Method: HEK293 cells expressing GloSensor™ 40F cGMP (Part No: CS182801, Promega) were used to evaluate the synergy of the test compounds with NO. Multiple assays where run in which the concentrations of test compound also well as the concentration of Diethylenetriamine NONOate (DETA-NONOate) were varied to determine the synergy of the test compound with NO. Test compounds and Diethylenetriamine NONOate (DETA-NONOate or DETA-NO) were diluted to 3 mM (20×) in serum-free CO2 independent medium and serially diluted at 4× dilutions to create 5× dose curve from which 10 ul was added to the wells (x μM concentration for test compound solution and y μM concentration for DETA-NO solution; wherein x is one of the following final concentrations: 30000 nM, 7500 nM, 1875 nM, 468.8 nM, 117.2 nM, 29.29 nM, 7.320 nM, 1.830 nM, 0.460 nM, 0.114 nM, and 0.029 nM and y is one of the following final concentrations: 30 μM, 10 μM, 3.33 μM 1.11 μM, and 0 μM).
Following the analysis as described above, Table 2b summarizes results obtained for Compound I-1 with the various DETA-NO amount in this assay.

rats = assay: Acute and tonic pain: acetic acid test, abdominal cramps (Example 13); conditions: Compound I-1 p.o. 10 mg/kg, 120 minutes after treatment

- EC50 (sGC enzyme; [DETA-NO] 0 uM): 100 to 1000 nM
- EC50 (sGC enzyme; [DETA-NO] 1.11 uM): 100 to 1000 nM
- EC50 (sGC enzyme; [DETA-NO] 3.33 uM): 100 to 1000 nM
- EC50 (sGC enzyme; [DETA-NO] 10 uM): 100 to 1000 nM
- EC50 (sGC enzyme; [DETA-NO] 30 uM): ≤ 100 nM
- synergy with NO to stimulate sGC (sGC enzyme; varied DETA-NO concentrations): synergizes with NO
Structure (SMILES): Fc1ccccc1Cc1nc(-c2nc(C(F)(F)F)n[nH]2)cn2ccnc12 [Compound I-1, 8-(2-fluorobenzyl)-6-(3-(trifluoromethyl)-1H-1,2,4-triazol-5-yl)imidazo[1,2-a]pyrazine]
- CEREBELLUM nM cGMP/μg protein (cGMP in mouse brain; 0.3 MPK PO): 0.3199 nM cGMP/μg protein
- CORTEX nM cGMP/μg protein (cGMP in mouse brain; 0.3 MPK PO): 0.07761 nM cGMP/μg protein
- Hippocampus nM cGMP/μg protein (cGMP in mouse brain; 0.3 MPK PO): 0.04255 nM cGMP/μg protein
- STRIATUM nM cGMP/μg protein (cGMP in mouse brain; 0.3 MPK PO): 0.02261 nM cGMP/μg protein
- CEREBELLUM nM cGMP/μg protein (cGMP in mouse brain; 1 MPK PO): 0.4577 nM cGMP/μg protein
- CORTEX nM cGMP/μg protein (cGMP in mouse brain; 1 MPK PO): 0.08064 nM cGMP/μg protein
- Hippocampus nM cGMP/μg protein (cGMP in mouse brain; 1 MPK PO): 0.04302 nM cGMP/μg protein
- STRIATUM nM cGMP/μg protein (cGMP in mouse brain; 1 MPK PO): 0.03124 nM cGMP/μg protein
- CEREBELLUM nM cGMP/μg protein (cGMP in mouse brain; 3 MPK PO): 0.7524 nM cGMP/μg protein
- CORTEX nM cGMP/μg protein (cGMP in mouse brain; 3 MPK PO): 0.1081 nM cGMP/μg protein
- Hippocampus nM cGMP/μg protein (cGMP in mouse brain; 3 MPK PO): 0.0519 nM cGMP/μg protein
- STRIATUM nM cGMP/μg protein (cGMP in mouse brain; 3 MPK PO): 0.03719 nM cGMP/μg protein
- CEREBELLUM nM cGMP/μg protein (cGMP in mouse brain; 10 MPK PO): 1.796**** nM cGMP/μg protein
- CORTEX nM cGMP/μg protein (cGMP in mouse brain; 10 MPK PO): 0.1734* nM cGMP/μg protein
- Hippocampus nM cGMP/μg protein (cGMP in mouse brain; 10 MPK PO): 0.1171** nM cGMP/μg protein
- STRIATUM nM cGMP/μg protein (cGMP in mouse brain; 10 MPK PO): 0.04612* nM cGMP/μg protein
- % of activity vs. vehicle (rats): 7%
